SMILES strings stand for the structures. Read-outs that look alike come from different tables or passages of the source.

Data set [1] deals with utriculi in the Rhino mouse. The data set is described as follows: Reduction of the number of utriculi in the Rhino mouse model. The note with it: for inhibition in vivo at 0.1 % / inhibition in vivo at 0.2 %: read-out: Decrease in % (number of utriculi / cysts). The class given is in vivo, Rhino mice.
Data set [2] relates to comedos. Nature of the data set: Comedolytic activity on tar-induced comedos of rabbit ears. The class given is in vivo, albino rabbits. The note with it: Oryctolagus cuniculus, 336 h, topical, read-out: Comedolytic activity in % (decrease in number of comedos vs control ear). Here is the method: The development of comedos was induced by one topical application of 0.5 ml per day, onto both ears of albino rabbits, of 5% of tar in Polyan® (ester of lanolin alcohol and linolenic acid, produced by Amerchol Corp., U.S.A.), the application being carried out on 5 successive days per week over a period of two weeks. Thereafter, the test substances in ethanol/propylene glycol (70:30, v/v, 0.5 ml) were applied topically onto the inner skin area of one ear of each rabbit once per day on 5 successive days per week over a period of two weeks. The second ear of each animal served as an untreated control.
After further treatment for 72 hours with the test substance, the rabbits were sacrificed. A skin sample of about 6 cm^2 was taken from each auricle just outside the oratory passage, and this sample was divided into sections of about 1 cm^2. These pieces of skin were immersed for 2 minutes in warm water at 60° C. The epidermis was carefully peeled off using the flat end of a spatula and a small forceps, and was placed, dermal side up, on the slide. After drying in air overnight, the test strips were assessed under a stereomicroscope. […] The comedos were recognizable as discrete, cylindrical to round keratose particles which were of similar appearance and whose size and number were proportional to the activity of the test substance. The comedolytic effect was determined as the decrease in the number of comedos, in %, compared with the control ear (cf. Table 2).

Data set [3] relates to white male New Zealand rabbits. The note with it: rabbit, in vivo. Here is the method:
5. The toleration of the test substances after topical administration was determined in experiments with 6 white male New Zealand rabbits in each case. In the case of each test animal, an area of about 6 cm^2 on the back was shaved. The test substances were dissolved in ethanol/propylene glycol (70:30, v/v), and 0.2 ml of this solution was applied with an automatic micropipette on 9 successive days by carefully rubbing the solution into a particular point twice daily at 6-hour intervals.
Before each application in the morning, all test areas were assessed subjectively in respect of erythemas and scaling, a numerical scale from 0 to 3 being employed (0=no reaction, 1=mild, 2=moderate and 3=severe). The average erythema formation and scaling gives the relative irritant level of the test substances in comparison with vitamin A acid.

The subject of data set [4] is tracheal epithelium. The data set is described as follows: Elimination of keratinization in tracheal cultures (antitumor action). The following applies: Mesocricetus auratus, 240 h. The class given is cell-based, hamster. The source says:
The test model is used to determine the intrinsic property of the novel compounds of increasing the differentiation of epithelial cells. The great significance of this screening method in predicting the potential use of a new retinoid for the prevention of tumors in epithelial tissue is generally recognized. Moreover, it is known that every in vitro test system has disadvantages in respect of the prediction of in vivo activity. Apart from these basic restrictions, tracheal cell cultures are one of the most useful methods of determining the biological activity of novel retinoids.
The ability of the test substances to eliminate keratinization in a defined in vitro system was determined. Tracheae of hamsters at a very early stage of vitamin A deficiency were used for culture. […] Their average weight was from 47 to 52 g. The tracheal epithelium was in general slightly columnar or pavement-like and had only isolated areas of squamous metaplasia. Each trachea was opened along the membrane-like dorsal wall, from the larynx to the carina, and cultured in a serum-free medium (CMRL-1066 supplemented by 1.0 μg/ml of crystalline bovine insulin, 0.1 μg/ml of hydrocortisone hemisuccinate, 2mM of glutamine, 100 units/ml of penicillin and 100 μg/ml of streptomycin). The cultures were aerated with a mixture of 50% of oxygen, 45% of nitrogen and 5% of carbon dioxide, and the culture dishes were shaken gently to bring the tracheae into contact with the gas and the culture medium. All tracheae were initially kept for 3 days in the culture medium without the addition of retinoid. After this period, some tracheae were removed. […] The remaining tracheae were divided into groups, which were then treated with the following additives:
(a) The test substance dissolved in spectroscopically pure dimethylsulfoxide (the final concentration of dimethylsulfoxide in the culture medium was never greater than 0.1%).
(b) An equivalent amount of dimethylsulfoxide without a further additive.
The nutrient medium was changed three times per week. After culture for 10 days, the remaining tracheae were worked up by being fixed in 10% strength buffered formaldehyde solution and embedded in paraffin. […] Dose-effect curves of the novel compounds were recorded. Table 1 below gives the extrapolated molar doses which suppress keratinization in half the cultures (ED 50%).

The mark [5] stands for this setting: concentration 0.1%, Rhino mouse.
The mark [6] stands for this setting: concentration 0.1%, rabbit ear, two weeks.
[7] abbreviates: hamster tracheal culture, 10 days, serum-free, extrapolated from dose-effect curves, read-out: ED50 (molar dose which suppresses keratinization in half the cultures) (converted).
Setting [8] is: concentration 0.2%, Rhino mouse.

As to `CCOC(=O)c1ccc(/C=C(\C)c2cc3c(cc2C)C(C)(C)CCC3(C)C)cc1` [Example 1, Ethyl E-4-[2-methyl-2-(1,1,4,4,6-pentamethyl-1,2,3,4-tetrahydronaphth-7-yl)-vinyl]-benzoate], the inhibition in vivo at 0.1 % stood at 65% in data set [1] (setting [5]) and 75% in data set [2] (setting [6]).

With `CCc1cc2c(cc1/C(C)=C/c1ccc(C(=O)O)cc1)C(C)(C)CCC2(C)C` [Example 5, E4-[2-methyl-2-(1,1,4,4-tetramethyl-6-ethyl-1,2,3,4-tetrahydronaphth-7-yl)-vinyl]-benzoic acid], in data set [3], the Erythema is 2.0 and the Scaling came to 1.7. In addition, the inhibition in vivo at 0.1 % in data set [1] (setting [5]) stood at 69%. In data set [2] (setting [6]), the inhibition in vivo at 0.1 % came out at 54%.

Take `CCOC(=O)c1ccc(/C=C(\C)c2cc3c(cc2C(C)C)C(C)(C)CCC3(C)C)cc1` [Example 6, Ethyl E4-[2-methyl-2-(1,1,4,4-tetramethyl-6-isopropyl-1,2,3,4-tetrahydronaphth-7-yl)-vinyl]-benzoate]: the inhibition in vivo at 0.1 % turned out to be 59% in data set [1] (setting [5]) and 68% in data set [2] (setting [6]).

In data set [3], `C/C(=C\c1ccc(C(=O)O)cc1)c1cc2c(cc1C(C)C)C(C)(C)CCC2(C)C` [Example 7, E4-[2-methyl-2-(1,1,4,4-tetramethyl-6-isopropyl-1,2,3,4-tetrahydronaphth-7-yl)-vinyl]benzoic acid] yielded an Erythema of 3.0. Further, the Scaling in data set [3] is 3.0. Moreover, the IC50 in data set [4] (setting [7]) is 10 pM. Further, the inhibition in vivo at 0.1 % amounted to 62% in data set [1] (setting [5]) and 59% in data set [2] (setting [6]).

On to `C/C(=C\c1ccc(C(=O)O)cc1)c1cc2c(cc1CC(C)C)C(C)(C)CCC2(C)C` [Example 8, E4-[2-methyl-2-(1,1,4,4-tetra-methyl-6-(2-methylpropyl)-1,2,3,4-tetrahydronaphth-7-yl)-vinyl]-benzoic acid], for which the Erythema in data set [3] stood at 1.4. Moreover, the Scaling in data set [3] was found to be 1.0. Also, the inhibition in vivo at 0.1 % in data set [1] (setting [5]) was 52%; in data set [2] (setting [6]), 62%.

For the molecule `C/C(=C/c1ccc(C(=O)O)cc1)c1cc2c(cc1C)C(C)(C)CCC2(C)C` [Example 10, Z4-[2-methyl-2-(1,1,4,4,6-pentamethyl-1,2,3,4-tetrahydronaphth-7-yl)-vinyl]-benzoic acid], the inhibition in vivo at 0.1 % in data set [1] (setting [5]) turned out to be 49%; in data set [2] (setting [6]), 31%.

With `CCCc1cc2c(cc1/C(C)=C/c1ccc(C(=O)O)cc1)C(C)(C)CCC2(C)C` [Example 11, E4-[2-methyl-2-(1,1,4,4-tetramethyl-6-propyl-1,2,3,4-tetrahydronaphth-7-yl)-vinyl]-benzoic acid], the figures for the inhibition in vivo at 0.1 % in data set [1] (setting [5]) and in data set [2] (setting [6]) were 59% and 40%, respectively.

Turning to `CCCCc1cc2c(cc1/C(C)=C/c1ccc(C(=O)O)cc1)C(C)(C)CCC2(C)C` [Example 14, E4-[2-methyl-2-(1,1,4,4-tetramethyl-6-n-butyl-1,2,3,4-tetrahydronaphth-7-yl)-vinyl]-benzoic acid], the inhibition in vivo at 0.1 % in data set [1] (setting [5]) is 64%; in data set [2] (setting [6]) it was 79%.

As to `CCCCCCCCc1cc2c(cc1/C(C)=C/c1ccc(C(=O)O)cc1)C(C)(C)CCC2(C)C` [Example 15, E4-[2-methyl-2-(1,1,4,4-tetramethyl-6-n-octyl-1,2,3,4-tetrahydronaphth-7-yl)-vinyl]-benzoic acid], the inhibition in vivo at 0.1 % in data set [1] (setting [5]) and in data set [2] (setting [6]) was 59% in each case.

In the case of `C/C(=C/c1ccc(C(=O)O)cc1)c1cc2c(cc1CC(C)C)C(C)(C)CCC2(C)C` [Example 17, Z4-[2-methyl-2-(1,1,4,4-tetramethyl-6-(2-methylpropyl)-1,2,3,4-tetrahydronaphth-7-yl)-vinyl]-benzoic acid], the inhibition in vivo at 0.2 % turned out to be 62% in data set [1] (setting [8]) and 56% in data set [2] (concentration 0.2%, rabbit ear, two weeks).

In the case of `C/C(=C\c1ccc(C(=O)O)cc1)c1cc2c(cc1CC(C)C)C(C)(C)C(C)C2(C)C` (centres unmarked) [Example 18, E4-[2-methyl-2-(1,1,2,3,3-pentamethyl-5-(2-methylpropyl)-indan-6-yl)-vinyl]-benzoic acid], the inhibition in vivo at 0.2 % in data set [1] (setting [8]) is 42%.

Turning to `CCOC(=O)c1ccc(/C=C(\C)c2cc3c(cc2CC(C)C)C(C)(C)CCC3(C)C)cc1` [Example 19, ethyl E4-[2-methyl-2-(1,1,4,4-tetramethyl-6-(2-methylpropyl)-1,2,3,4-tetrahydronaphth-7-yl)-vinyl]-benzoate], the inhibition in vivo at 0.1 % in data set [1] (setting [5]) is 12%.

Regarding `COC(=O)c1ccc(/C=C(\C)c2cc3c(cc2CC(C)C)C(C)(C)CCC3(C)C)cc1` [Example 20, methyl E4-[2-methyl-2-(1,4,4-tetramethyl-6-(2-methylpropyl)-1,2,3,4-tetrahydronaphth-7-yl)-vinyl]-benzoate], in data set [1] (setting [5]), the inhibition in vivo at 0.1 % amounted to 6%.

As for `C/C(=C\c1ccc(C(=O)O)cc1)c1cc2c(cc1CCC(C)C)C(C)(C)CCC2(C)C` [Example 23, E4-[2-methyl-2-(1,1,4,4-tetra-methyl-6-(3-methylbutyl)-1,2,3,4-tetrahydronaphth-7-yl)-vinyl]-benzoic acid], the inhibition in vivo at 0.2 % in data set [1] (setting [8]) was found to be 62%.

For the molecule `CCCCCCCCc1cc2c(cc1/C(C)=C/c1ccc(C(=O)O)cc1)C(C)(C)C(C)C2(C)C` (centres unmarked) [Example 24, E4-[2-methyl-2-(1,1,2,3,3-pentamethyl-5-n-octyl-indan-6-yl)-vinyl]-benzoic acid], in data set [1] (setting [8]), the “Decrease in % (number of utriculi / cysts)” value was 42%.

`C/C(=C\c1ccc(C(=O)O)cc1)c1cc2c(cc1CCC(C)C)C(C)(C)C(C)C2(C)C` (centres unmarked) [Example 25, E4-[2-methyl-2-(1,1,2,3,3-pentamethyl-5-(3-methylbutyl)-indan-6-yl)-vinyl]-benzoic acid]: in data set [1] (setting [8]), the inhibition in vivo at 0.2 % is 60%.

Consider `C/C(=C\c1ccc(C(=O)Nc2ccc(O)cc2)cc1)c1ccc2c(c1)C(C)(C)CCC2(C)C` [Example 31, E-4-[2-methyl-2-(1,1,4,4-tetramethyl-1,2,3,4-tetrahydronaphth-7-yl)-vinyl]-benzoic acid 4-hydroxyanilide], for which, in data set [4] (setting [7]), the IC50 was 3 pM.

Regarding `C/C(=C\c1ccc(C(=O)Nc2ccc(O)cc2)cc1)c1ccc2c(c1)C(C)(C)C(C)C2(C)C` (centres unmarked) [Example 32, E-4-[2-methyl-2-(1,1,2,3,3-pentamethylindan-6-yl)-vinyl]-benzoic acid 4-ydroxyanilide], in data set [4] (setting [7]), the IC50 was 1 pM.

For the molecule `C/C(=C\c1ccc(C(=O)Nc2nnn[nH]2)cc1)c1ccc2c(c1)C(C)(C)C(C)C2(C)C` (centres unmarked) [Example 40, E-4-[2-methyl-2-(1,1,2,3,3,- pentamethylindan-6-yl)-vinyl]-N(tetrazol-5-yl)-benzamide], the IC50 in data set [4] (setting [7]) was 1 pM.

Regarding `CC1=C(/C=C/C(C)=C/C=C/C(C)=C/C(=O)O)C(C)(C)CCC1` [Vitamin A acid, reference compound], in data set [3], the Erythema turned out to be 3.0 and the Scaling is recorded as 3.0. Also, the IC50 in data set [4] (read-out: ED50 (molar dose which suppresses keratinization in half the cultures)) was 10 pM. For the same molecule, the inhibition in vivo at 0.1 % in data set [1] (Mus musculus) came to 60%. Besides, the inhibition in vivo at 0.1 % in data set [2] turned out to be 67%.

(Values after US4578498A, “Phenylethylene derivatives and their use as drugs” (BASF Aktiengesellschaft, priority 1982, dated 1986).)
